Patent US12624025B2, “Inhibitors of SARM1” (DISARM THERAPEUTICS, INC., priority 2019, dated 2026)
Where two headings read alike, the source gives them in different places.

Biological target: T1, SARM1 SAM-TIR (Homo sapiens, UniProt Q6SZW1)
T1 construct: a fragment of the SARM1 molecule encompassing the SAM and TIR domains; tandem Strep-tag II (WSHPQFEK twice, with Gly/Ser linkers); made in house; host or cells: NRK1-HEK293T cells (transient transfection; crude lysate supernatant used, not purified)
T1 sequence (Q6SZW1 409-724 limits assumed): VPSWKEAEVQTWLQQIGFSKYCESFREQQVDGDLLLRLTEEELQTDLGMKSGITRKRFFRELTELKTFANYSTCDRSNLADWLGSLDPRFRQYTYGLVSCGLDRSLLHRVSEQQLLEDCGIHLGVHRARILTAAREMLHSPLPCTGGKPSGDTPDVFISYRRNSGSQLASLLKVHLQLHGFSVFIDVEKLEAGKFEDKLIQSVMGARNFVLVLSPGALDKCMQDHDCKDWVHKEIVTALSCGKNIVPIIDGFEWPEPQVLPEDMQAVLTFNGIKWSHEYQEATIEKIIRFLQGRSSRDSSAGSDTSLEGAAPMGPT
Assay: SAM-TIR SARM1 IC50 assay (NADase activity, NAD+ cleavage, RapidFire MS readout)
Format: biochemical
Experimental: This Example describes an assay of SAM-TIR NADase activity and use of this assay to measure the efficacy of compounds of Formula I to block SARM1 mediated NAD+ cleavage. This assay is optimized in such a way as to characterize the efficacy of the compounds in Formula I to inhibit SARM1 activity and to calculate an IC50 value for each compound. This assay makes use of a fragment of the SARM1 molecule encompassing the SAM and TIR domains.
NRK1-HEK293T cells were seeded onto 150 cm^2 plates at 20×10^6 cells per plate. The next day, the cells were transfected with 15 μg FCIV-SST (SAM-TIR expression plasmid, SEQ ID NO: 1) using X-TREMEGENE™ 9 DNA Transfection Reagent (Roche product #06365787001).
The cultures were supplemented with 1 mM NR at time of transfection to minimize toxicity from SAM-TIR overexpression. Forty-eight hours after transfection, cells were harvested, pelleted by centrifugation at 1,000 rpm (Sorvall ST 16R centrifuge, Thermo Fisher), and washed once with cold PBS (0.01 M phosphate buffered saline NaCl 0.138 M; KCl 0.0027 M; pH 7.4). The cells were resuspended in PBS with protease inhibitors (cOmplete™ protease inhibitor cocktail, Roche product #11873580001) and cell lysates were prepared by sonication (Branson Sonifer 450, output=3, 20 episodes of stroke). The lysates were centrifuged (12,000×g for 10 min at 4° C.) to remove cell debris and the supernatants (containing SARM1 SAM-TIR protein) were stored at −80° C. for later use in the in vitro SARM1 SAM-TIR NADase assay (see below). Protein concentration was determined by the Bicinchoninic (BCA) method and used to normalize lysate concentrations.
The enzymatic assay was performed in a 384-well polypropylene plate in Dulbecco's PBS buffer in a final assay volume of 20 μL. SAM-TIR lysate with a final concentration of 5 μg/mL was pre-incubated with the respective compound at 1% DMSO final assay concentration over 2 h at room temperature. The reaction was initiated by addition of 5 μM final assay concentration of NAD+ as substrate. After a 2 hr room temperature incubation, the reaction was terminated with 40 μL of stop solution of 7.5% trichloroactetic acid in acetonitrile. The NAD+ and ADPR concentrations were analyzed by a RapidFire High Throughput Mass Spectrometry System (Agilent Technologies, Santa Clara, CA) using an API4000 triple quadrupole mass spectrometer (AB Sciex Framingham, Mass.).

[1] = SAM-TIR lysate 5 μg/mL, 2 h pre-incubation with compound, 5 μM NAD+, 2 hr room temperature, read-out: SARM1 IC50

Row | Structure (SMILES) | IC50 [1] | IC50
1 | N#Cc1c(Nc2ccccc2C(F)(F)F)sn(-c2ccc3c(c2)OCCO3)c1=O [Example 52] | < 1000 nM | –
2 | N#Cc1c(Nc2ccccc2C(F)(F)F)sn([C@H]2CCN(C(N)=O)C2)c1=O [Example 9] | < 1000 nM | –
3 | N#Cc1c(Nc2ccccc2C(F)(F)F)sn(-c2ccccc2)c1=O [Example 4] | < 1000 nM | –
4 | N#Cc1c(Nc2c(Cl)ccc3ncccc23)sn([C@@H]2CCNC2)c1=O [Example 32] | < 1000 nM | –
5 | CS(=O)(=O)N1CC[C@@H](n2sc(Nc3c(Cl)ccc4ncccc34)c(C#N)c2=O)C1 [Example 30] | < 1000 nM | –
6 | CC(C)(C)OC(=O)n1ncc2cc(-n3sc(Nc4ccccc4C(F)(F)F)c(C#N)c3=O)ccc21 [Example 29] | < 1000 nM | –
7 | CC(=O)N1CC[C@@H](n2sc(Nc3ccccc3C(F)(F)F)c(C#N)c2=O)C1 [Example 15] | < 1000 nM | –
8 | N#Cc1c(Nc2ccccc2C(F)(F)F)sn(-c2ccc3[nH]ncc3c2)c1=O [Example 11] | < 1000 nM | –
9 | N#Cc1c(Nc2ccccc2C(F)(F)F)sn([C@@H]2CCN(C(N)=O)C2)c1=O [Example 10] | < 1000 nM | –
10 | N#Cc1c(Nc2ccccc2C(F)(F)F)sn(-c2cccc(-c3cnco3)c2)c1=O [Example 18] | < 1000 nM | –
11 | CS(=O)(=O)N1CC[C@H](n2sc(Nc3c(Cl)ccc4ncccc34)c(C#N)c2=O)C1 [Example 22] | < 1000 nM | –
12 | CN(c1ccccc1C(F)(F)F)c1sn([C@@H]2CNCC23CC3)c(=O)c1C#N [Example 49] | > 5000 nM | –
13 | Cc1cnn(C)c1-n1sc(Nc2c(Cl)ccc3ncccc23)c(C#N)c1=O [Example 47] | 1000 to 5000 nM | –
14 | COCCN(C)C(=O)c1c(Nc2ccccc2C(F)(F)F)sn(-c2ccccc2)c1=O [Example 35] | < 1000 nM | –
15 | CS(=O)(=O)N1CC[C@@H](n2sc(Nc3ccccc3C(F)(F)F)c(C#N)c2=O)C1 [Example 12] | < 1000 nM | –
16 | CS(=O)(=O)N1CC2CCC(C1)C2n1sc(Nc2c(Cl)ccc3ncccc23)c(C#N)c1=O (centres unmarked) [Example 34] | < 1000 nM | –
17 | N#Cc1c(Nc2c(Cl)ccc3ncccc23)sn(-c2ccn[nH]2)c1=O [Example 13] | < 1000 nM | –
18 | N#Cc1c(Nc2ccccc2C(F)(F)F)sn(-c2ccc(-n3cccn3)cc2)c1=O [Example 51] | < 1000 nM | –
19 | CS(=O)(=O)N1C2CCC1C(n1sc(Nc3c(Cl)ccc4ncccc34)c(C#N)c1=O)C2 (centres unmarked) [Example 26] | – | < 1000 nM
20 | N#Cc1c(Nc2ccccc2C(F)(F)F)sn(-c2cccc3[nH]ncc23)c1=O [Example 8] | < 1000 nM | –
21 | C[C@@H]1CNC[C@H]1n1sc(Nc2c(Cl)ccc3ncccc23)c(C#N)c1=O [Example 44] | < 1000 nM | –
22 | CN1CCC(n2sc(Nc3c(Cl)ccc4ncccc34)c(C#N)c2=O)CC1 [Example 1] | < 1000 nM | –
23 | CN1C[C@@H](n2sc(Nc3c(Cl)ccc4ncccc34)c(C#N)c2=O)C2(CC2)C1 [Example 41] | < 1000 nM | –
24 | N#Cc1c(Nc2ccccc2C(F)(F)F)sn(-c2ccc3cn[nH]c3c2)c1=O [Example 53] | < 1000 nM | –
25 | O=C(c1c(Nc2c(Cl)cccc2Cl)sn(-c2ccccc2)c1=O)N1CCOCC1 [Example 38] | < 1000 nM | –

Row | Structure (SMILES) | IC50 [1] | IC50
26 | N#Cc1c(Nc2ccccc2C(F)(F)F)sn([C@@H]2CCNC2)c1=O [Example 21] | < 1000 nM | –
27 | CS(=O)(=O)N1CCC(n2sc(Nc3ccccc3C(F)(F)F)c(C#N)c2=O)CC1 [Example 20] | < 1000 nM | –
28 | CC(=O)N1CCC(n2sc(Nc3ccccc3C(F)(F)F)c(C#N)c2=O)CC1 [Example 2] | < 1000 nM | –
29 | N#Cc1c(Nc2c(Cl)ccc3ncccc23)sn(C2CCNCC2)c1=O [Example 16] | < 1000 nM | –
30 | CC(=O)N1CC[C@H](n2sc(Nc3ccccc3C(F)(F)F)c(C#N)c2=O)C1 [Example 23] | < 1000 nM | –
31 | O=C(c1c(Nc2ccccc2C(F)(F)F)sn(-c2ccccc2)c1=O)N1CCOCC1 [Example 39] | < 1000 nM | –
32 | CS(=O)(=O)N1CC2CCC1C2n1sc(Nc2c(Cl)ccc3ncccc23)c(C#N)c1=O (centres unmarked) [Example 42] | < 1000 nM | –
33 | C[C@H]1CNCC[C@H]1n1sc(Nc2c(Cl)ccc3ncccc23)c(C#N)c1=O [Example 43] | < 1000 nM | –
34 | CS(=O)(=O)N1CC[C@H](n2sc(Nc3ccccc3C(F)(F)F)c(C#N)c2=O)C1 [Example 7] | < 1000 nM | –
35 | C[C@@H]1CNC[C@@H]1n1sc(Nc2ccccc2C(F)(F)F)c(C#N)c1=O [Example 3] | < 1000 nM | –
36 | N#Cc1c(Nc2ccccc2C(F)(F)F)sn(C2CCOCC2)c1=O [Example 31] | < 1000 nM | –
37 | N#Cc1c(Nc2c(Cl)ccc3ncccc23)sn(C2C3CCC2CNC3)c1=O (centres unmarked) [Example 37] | < 1000 nM | –
38 | N#Cc1c(Nc2c(Cl)ccc3ncccc23)sn([C@H]2CCNC2)c1=O [Example 48] | > 5000 nM | –
39 | COc1cccc(OC)c1Nc1sn([C@@H]2CCNC2)c(=O)c1C(=O)N1CCOCC1 [Example 46] | < 1000 nM | –
40 | N#Cc1c(Nc2ccccc2C(F)(F)F)sn(C2CCNCC2)c1=O [Example 19] | < 1000 nM | –
41 | N#Cc1c(Nc2ccccc2C(F)(F)F)sn([C@H]2CCNC2)c1=O [Example 5] | < 1000 nM | –
42 | C[C@@H]1CN(S(C)(=O)=O)C[C@H]1n1sc(Nc2c(Cl)ccc3ncccc23)c(C#N)c1=O [Example 28] | < 1000 nM | –
43 | N#Cc1c(Nc2c(Cl)cccc2Cl)sn(-c2ccc(-n3cccn3)cc2)c1=O [Example 50] | < 1000 nM | –
44 | CN1CC[C@@H](n2sc(Nc3c(Cl)ccc4ncccc34)c(C#N)c2=O)C1 [Example 33] | < 1000 nM | –
45 | N#Cc1c(Nc2ccccc2C(F)(F)F)sn(C2CNCC23CC3)c1=O (centres unmarked) [Example 24] | < 1000 nM | –
46 | N#Cc1c(Nc2ccccc2C(F)(F)F)sn([C@@H]2CNCC23CC3)c1=O [Example 27] | < 1000 nM | –
47 | N#Cc1c(Nc2ccccc2C(F)(F)F)sn(C2CCN(C(N)=O)CC2)c1=O [Example 14] | < 1000 nM | –
48 | CN1C[C@H](n2sc(Nc3c(Cl)ccc4ncccc34)c(C#N)c2=O)C2(CC2)C1 [Example 36] | < 1000 nM | –
49 | N#Cc1c(Nc2ccccc2C(F)(F)F)sn(-c2cccc(C(N)=O)c2)c1=O [Example 6] | < 1000 nM | –
50 | N#Cc1c(Nc2cccc3ncccc23)sn(-c2ccc3c(c2)OCCO3)c1=O [Example 25] | < 1000 nM | –
